This note sets out measurements from ChEMBL document CHEMBL1201862, “PubChem BioAssay data set” (2004).

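These data come from cells grown in 96-well plates and exposed to compound for 48 hours at five concentrations. Abbreviation: GI50, concentration required for 50% inhibition of growth.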 Calls of active or inactive are those of the source. Cut-off read from the data, not from the text of the source: active = GI50 up to about 1.1 µM and inactive = higher.

Among the test systems are BT-549; A549; NCI-H226; OVCAR-5; HCC 2998; HCT-15; OVCAR-8; SK-OV-3; EKVX; SF-295; OVCAR-3; SF-539; HCT-116; TK-10; Malme-3M; UO-31; KM12; DU-145; UACC-62; M14.
Holding throughout (experiment): NCI anticancer screen, dose series, 48 h

Consider `C=C1C(=O)O[C@@H]2[C@H]1C[C@H](I)[C@@]1(C)CC[C@H](O1)[C@](C)(I)CCCC(C)[C@@H]2O` (stereo partly drawn), for which the GI50 in the assay on BT-549 was 7.23 µM (inactive); with A549, 9.79 µM (inactive); in the assay on NCI-H226, 1.91 µM (inactive); with OVCAR-5, 8.69 µM (inactive); in the assay with HCC 2998, 12.2 µM (inactive); with HCT-15, 1.76 µM. Besides, the GI50 in the assay with OVCAR-8 was 2.96 µM (inactive); in the assay with SK-OV-3, 16.6 µM (inactive); in the assay on EKVX it was 8.95 µM (inactive); in the assay with SF-295 it was 16 µM (inactive); in the assay with OVCAR-3 it was 2.64 µM (inactive); in the assay on SF-539, 2.02 µM (inactive). For the same compound, the GI50 in the assay on HCT-116 is 2.88 µM (inactive); in the assay with TK-10, 1.75 µM (inactive); in the assay with Malme-3M it was 2.48 µM (inactive); with UO-31 it was 3.66 µM (inactive); with KM12, 9.04 µM (inactive); in the assay with DU-145 it was 6.19 µM (inactive). Moreover, the GI50 in the assay on UACC-62 was 4.92 µM (inactive); in the assay with M14, 4.68 µM (inactive).

For `CC(=O)OCC1OC(NC(=S)Nn2c(=O)[nH]c3ccccc3c2=O)C(OC(C)=O)C(OC(C)=O)C1OC(C)=O` (stereo not drawn), the GI50 is > 100 µM (inactive) in the assay with BT-549; > 100 µM (inactive) in the assay with A549; > 100 µM (inactive) with NCI-H226; > 100 µM (inactive) in the assay on OVCAR-5; > 100 µM (inactive) in the assay with HCC 2998; above 100 µM in the assay on HCT-15. Moreover, the GI50 in the assay on OVCAR-8, with SK-OV-3, in the assay with EKVX, in the assay with SF-295, with OVCAR-3 and with SF-539 was > 100 µM (inactive) each time. Besides, the GI50 in the assay on HCT-116, with Malme-3M, in the assay on UO-31, with KM12, with DU-145 and with UACC-62 was > 100 µM (inactive) throughout. In addition, in the assay on M14, the GI50 is > 100 µM (inactive).

On to `CC(Oc1ccc(Cl)cc1Cl)C(=O)NN1C(=O)CC(=O)N(c2ccccc2)C1=S` (stereo not drawn), for which the GI50 in the assay on BT-549 was 59.6 µM (inactive); in the assay on A549, 47.6 µM (inactive); with NCI-H226, 37.8 µM (inactive); with OVCAR-5 it was > 100 µM (inactive); in the assay on HCC 2998, 63.4 µM (inactive); in the assay on HCT-15, 38.2 µM. Besides, the GI50 in the assay with OVCAR-8 is 50.2 µM (inactive); in the assay with SK-OV-3, > 100 µM (inactive); in the assay on EKVX, 69.5 µM (inactive); in the assay on SF-295 it was 43.4 µM (inactive); in the assay with OVCAR-3, 42.5 µM (inactive); with SF-539, > 100 µM (inactive). Moreover, the GI50 is 35.5 µM (inactive) in the assay on HCT-116; > 100 µM (inactive) in the assay on TK-10; > 100 µM (inactive) with Malme-3M; 64.7 µM (inactive) in the assay with UO-31; 18.1 µM (inactive) in the assay with KM12; 53.3 µM (inactive) in the assay with DU-145. For the same compound, the figures for the GI50 in the assay with UACC-62 and with M14 were 37.5 µM (inactive) and 73.3 µM (inactive), respectively.

Consider `O=c1c(-c2ccc(O)cc2)coc2cc(OC3OC(CO)C(O)C(O)C3O)cc(O)c12` (stereo not drawn), for which the GI50 in the assay on BT-549 is 58.5 µM (inactive); in the assay with A549, 60.3 µM (inactive); in the assay on NCI-H226, > 100 µM (inactive); in the assay with OVCAR-5, > 10 µM (inactive); in the assay on HCC 2998 it was > 100 µM (inactive); with HCT-15, above 100 µM. Further, the GI50 is > 100 µM (inactive) with OVCAR-8; > 10 µM (inactive) with SK-OV-3; 38.8 µM (inactive) in the assay with EKVX; 92.7 µM (inactive) with SF-295; > 100 µM (inactive) in the assay with OVCAR-3; 31.1 µM (inactive) in the assay with SF-539. The GI50 in the assay with HCT-116 was > 100 µM (inactive); in the assay on TK-10, 33 µM (inactive); in the assay with Malme-3M, > 10 µM (inactive); in the assay on UO-31, 22.2 µM (inactive); with KM12, > 100 µM (inactive); with DU-145 it was > 100 µM (inactive). Besides, the GI50 in the assay on UACC-62 is 81.3 µM (inactive); with M14 it was > 10 µM (inactive).

As for `CCOC(=O)Nc1cc2c(c(N)n1)N=C(c1ccccc1)[C@H](C)N2` [MIVOBULIN ISETHIONATE], the GI50 in the assay with BT-549 is 0.01 µM (active); in the assay on A549 it was < 0.0001 µM (active); in the assay with NCI-H226, 0.00215 µM (active); in the assay with OVCAR-5 it was 23 µM (inactive); with HCC 2998, < 0.0001 µM (active); with HCT-15, 0.0324 µM. The GI50 was < 0.0001 µM (active) with OVCAR-8; 17.4 µM (inactive) with SK-OV-3; 0.0653 µM (active) in the assay on EKVX; < 0.0001 µM (active) in the assay on SF-295; 0.000468 µM (active) in the assay with OVCAR-3; < 0.0001 µM (active) in the assay on HCT-116. The GI50 in the assay with TK-10 is 0.00273 µM (active); with Malme-3M, < 0.0001 µM (active); with UO-31 it was 0.000303 µM (active); in the assay with KM12, < 0.0001 µM (active); in the assay with DU-145, < 0.0001 µM (active); in the assay on UACC-62 it was < 0.0001 µM (active). Further, the GI50 in the assay with M14 is 0.00011 µM (active).

In the case of `Oc1ccc(-c2nc3cc(F)ccc3s2)cc1`, the GI50 with BT-549 is 20 µM (inactive); with A549, 18.4 µM (inactive); in the assay on NCI-H226, 17.3 µM (inactive); in the assay with OVCAR-5 it was 23.1 µM (inactive); in the assay with HCC 2998, 13.5 µM (inactive); in the assay on HCT-15, 23.6 µM. The GI50 is 31.6 µM (inactive) with OVCAR-8; 25.7 µM (inactive) in the assay on SK-OV-3; 13.2 µM (inactive) with EKVX; 19.6 µM (inactive) with SF-295; 19.2 µM (inactive) in the assay on OVCAR-3; 17.5 µM (inactive) in the assay on HCT-116. In addition, the GI50 is 34.1 µM (inactive) in the assay on TK-10; 16.5 µM (inactive) in the assay on Malme-3M; 19.3 µM (inactive) in the assay on UO-31; 20.5 µM (inactive) with KM12; 21.8 µM (inactive) with DU-145; 17.5 µM (inactive) in the assay on UACC-62. Further, in the assay on M14, the GI50 was 20 µM (inactive).

For `Cc1cc(S(=O)(=O)/N=C(\NN)Nc2ccc(Cl)cc2)c(S)cc1Cl`, the GI50 with BT-549 was 10.8 µM (inactive); in the assay with A549, 11 µM (inactive); in the assay with NCI-H226 it was 16 µM (inactive); in the assay on OVCAR-5, 1.81 µM (inactive); in the assay on HCC 2998, 11.2 µM (inactive); in the assay with HCT-15, 1.14 µM. Further, the GI50 in the assay with OVCAR-8 is 12.4 µM (inactive); with SK-OV-3 it was 23 µM (inactive); in the assay with EKVX it was 5.16 µM (inactive); in the assay with OVCAR-3 it was 12.4 µM (inactive); with SF-539 it was 14.1 µM (inactive); in the assay on HCT-116 it was 3.03 µM (inactive). Moreover, the GI50 in the assay with TK-10 was 21.3 µM (inactive); with Malme-3M it was 16.9 µM (inactive); in the assay with UO-31, 5.58 µM (inactive); in the assay with KM12, 2.85 µM (inactive); in the assay with DU-145, 4.35 µM (inactive); with UACC-62, 1.5 µM (inactive). Besides, the GI50 with M14 was 8.65 µM (inactive).

As to `CCOC(=O)NN(C(=O)OCC)c1c(C)cc(C)cc1C`, the GI50 is > 100 µM (inactive) with BT-549; > 100 µM (inactive) in the assay on A549; > 100 µM (inactive) in the assay with NCI-H226; > 100 µM (inactive) in the assay with OVCAR-5; > 100 µM (inactive) with HCC 2998; above 100 µM with HCT-15. In addition, the GI50 with OVCAR-8, in the assay on SK-OV-3, in the assay with EKVX, in the assay with OVCAR-3, with SF-539 and in the assay on HCT-116 was > 100 µM (inactive) throughout. Moreover, the GI50 is > 100 µM (inactive) in the assay with TK-10; > 100 µM (inactive) in the assay with Malme-3M; 98.9 µM (inactive) in the assay with UO-31; > 100 µM (inactive) in the assay on KM12; > 100 µM (inactive) in the assay on DU-145; > 100 µM (inactive) in the assay on UACC-62. Besides, the GI50 in the assay with M14 was > 100 µM (inactive).

Take `CNCC(SC)c1ccc(O)c(O)c1` (stereo not drawn): the GI50 in the assay with BT-549 was 16.6 µM (inactive); with A549 it was > 100 µM (inactive); with NCI-H226, > 100 µM (inactive); in the assay on OVCAR-5 it was > 100 µM (inactive); in the assay with HCC 2998, 16.7 µM (inactive); in the assay on HCT-15, 30.8 µM. Also, the GI50 in the assay on OVCAR-8 was 19.2 µM (inactive); in the assay on SK-OV-3, > 100 µM (inactive); with EKVX it was 15.8 µM (inactive); in the assay on SF-295, > 100 µM (inactive); in the assay on OVCAR-3 it was 14.1 µM (inactive); with HCT-116 it was 20.7 µM (inactive). In addition, the GI50 with TK-10 is 19.1 µM (inactive); with Malme-3M, 17.5 µM (inactive); in the assay on UO-31, 43 µM (inactive); in the assay with KM12, > 100 µM (inactive); in the assay with DU-145, 17.9 µM (inactive); in the assay on UACC-62 it was 41.6 µM (inactive). In the assay with M14, the GI50 is 52.8 µM (inactive).

Turning to `COc1cc(OCc2ccccc2)c2c(CCC(=O)O)cc(=O)oc2c1.COc1cc(OCc2ccccc2)cc2oc(=O)cc(CCC(=O)O)c12`, the GI50 in the assay with BT-549 is 57.5 µM (inactive); in the assay with A549, 43.3 µM (inactive); with NCI-H226 it was 87.3 µM (inactive); in the assay on OVCAR-5 it was > 100 µM (inactive); with HCC 2998, 56.5 µM (inactive); with HCT-15, 27 µM. In addition, the GI50 with OVCAR-8 is 37 µM (inactive); with SK-OV-3, 82.4 µM (inactive); in the assay on EKVX, 36.8 µM (inactive); with OVCAR-3, 31 µM (inactive); in the assay on SF-539, 71.6 µM (inactive); with HCT-116 it was 54 µM (inactive). Also, the GI50 in the assay with TK-10 was 31.6 µM (inactive); in the assay with Malme-3M, > 100 µM (inactive); with UO-31, 43.4 µM (inactive); in the assay on KM12 it was 43.8 µM (inactive); in the assay on DU-145 it was 64.6 µM (inactive); in the assay on UACC-62, 63.2 µM (inactive). In addition, the GI50 with M14 was 92.5 µM (inactive).
